Earlier results, collected in patent publication US10500227B2, “Bioactive gas-encapsulated echogenic liposomes and methods for treating cardiovascular disease” (University of Cincinnati, priority 2014, dated 2019).

SMILES: [N]=O [NO, nitric oxide]
- diffusivity (in muscular tissue): roughly 3,300 μm^2 per second
- half-life (in the presence of hemoglobin and oxygen in vivo): < 1 s
